The test system of the experiment is mouse leukemia P388 cells. As to the kind of experiment: Assay of antitumor activity: increase in life span of mice implanted with P388 leukemia. The note with it: CDF1 mice, P388 cells 10^6 cells/mouse i.p.; compound i.p. on first and fifth day after implantation; observed for 60 days; ILS from median survival days. It is filed as in vivo. Here is the method:
(1) Assay of antitumor activity
0.1 ml (10^6 cells/mouse) portions of mouse leukemia P388 cells were implanted intraperitoneally into 7-week-old CDF1 mice. […] From the results were calculated increases in life span (ILS, %) according to the following equation. In the following equation, T means median survival days of the chemical administration group, and C means median survival days of the control group. [formula]
Antitumor activity is shown as the relative ratio in the case where the ILS of dolastatin 10 is supposed to be 100.

On to dolastatin 10, for which the “Antitumor activity (relative ratio of ILS, ILS of dolastatin 10 supposed to be 100)” value stood at 100.

Values taken from patent publication US5767237A, “Peptide derivatives” (Teikoku Hormone Mfg. Co., Ltd., priority 1993, dated 1998).
